From patent US20260234129A1, “NOVEL IMIDAZOLE DERIVATIVE AND USE THEREOF” (PELEMED CO., LTD., priority 2023, published 2026)

The compounds below were run on MV4-11 cells (FLT3-ITD-expressing AML cell line) (assay: Cell proliferation inhibition, Alamar Blue). Conditions: 72 hours of compound treatment, read-out: Cellular (GI50) MV4-11.
Assay type: cell-based, human
Protocol: The cell proliferation inhibition experiment on acute myeloid leukemia (AML) cell lines was performed using FL3-ITD-expressing AML cell line MV4-11, BaF3-ITD-FLT3 F691L cell line, and BaF3-ITD-FLT3 D835Y cell line to test FLT3 inhibitory activity. All cell lines were human-derived cell lines, and the sources and culture conditions for each cell line are as follows.
Cell viability was assessed by a resazurin redox-based assay using the Alamar Blue Assay kit (Invitrogen, USA). Specifically, MV4-11, BaF3-ITD-FLT3-F691L, and BaF3-ITD-FLT3-D835Y cells were plated in 384-well plates at 8,000 cells in 45 μL of medium. As a negative control, dimethyl sulfoxide (DMSO) was added together with the compound. After three days (72 hours) of compound treatment, 5 μL of the Alamar Blue kit reagent was added to each well of the 384-well plates, followed by incubation at 37° C. for 2 hours in a humidified CO2 incubator. After incubation, fluorescence intensity (Flu) was measured at 544 nm and 590 nm using a SpectraMax iD3 Multi Mode Microplate Reader (Molecular Devices, ID3-STD).
`O=C(N[C@@H]1[C@@H]2CNC[C@@H]21)c1ccc2[nH]nc(-c3nc4ccc(N5CCOCC5)cc4[nH]3)c2c1` [Example 71, N-((1R,5S,6r)-3-azabicyclo[3.1.0]hexan-6-yl)-3-(6-morpholino-1H-benzo[d]imidazol-2-yl)-1H-indazole-5-carboxamide] gave a GI50 of 10 to 100 nM.

Same assay, conditions: Homo sapiens, MV4-11, 72 hours of compound treatment, read-out: Cellular (GI50) MV4-11
In the case of `Cc1ccc2nc(-c3n[nH]c4ccc(C(=O)NCCCN(C)C)cc34)[nH]c2c1` [Example 12, N-(3-(dimethylamino)propyl)-3-(6-methyl-1H-benzo[d]imidazol-2-yl)-1H-indazole-5-carboxamide], the GI50 is reported as under 10 nM. Work on `O=C(c1ccc2[nH]nc(-c3nc4ccc(N5CCOCC5)cc4[nH]3)c2c1)N1C[C@H]2C[C@@H]1CN2` [Example 65, ((1R,4R)-2,5-diazabicyclo[2.2.1]heptan-2-yl)(3-(6-morpholino-1H-benzo[d]imidazol-2-yl)-1H-indazol-5-yl)methanone] yielded a GI50 of 10 to 100 nM. In the case of `NCCN1CCC(NC(=O)c2ccc3[nH]nc(-c4nc5ccccc5[nH]4)c3c2)CC1` [Example 112, N-(1-(2-aminoethyl)piperidin-4-yl)-3-(1H-benzo[d]imidazol-2-yl)-1H-indazole-5-carboxamide], the GI50 is reported as 10 to 100 nM. Work on `NCCCNC(=O)c1ccc2[nH]nc(-c3ncc(-c4ccc(F)cc4)[nH]3)c2c1` [Example 81, N-(3-aminopropyl)-3-(5-(4-fluorophenyl)-1H-imidazol-2-yl)-1H-indazole-5-carboxamide] yielded a GI50 of 10 to 100 nM. For `COCCn1c(-c2n[nH]c3ccc(C(=O)NCCCN)cc23)nc2ccc(F)cc21` [Example 106, N-(3-aminopropyl)-3-(6-fluoro-1-(2-methoxyethyl)-1H-benzo[d]imidazol-2-yl)-1H-indazole-5-carboxamide], the GI50 was over 1000 nM. `O=C(c1ccc2[nH]nc(-c3nc4ccc(N5CCOCC5)cc4[nH]3)c2c1)N1C[C@@H]2C[C@H]1CN2` [Example 66, ((1S,4S)-2,5-diazabicyclo[2.2.1]heptan-2-yl)(3-(6-morpholino-1H-benzo[d]imidazol-2-yl)-1H-indazol-5-yl)methanone] gave a GI50 of 10 to 100 nM. For `CC(=O)N1CC2(C1)CN(C(=O)c1ccc3[nH]nc(-c4nc5ccc(N6CCOCC6)cc5[nH]4)c3c1)C2` [Example 60, 1-(6-(3-(6-morpholino-1H-benzo[d]imidazol-2-yl)-1H-indazole-5-carbonyl)-2,6-diazaspiro[3.3]heptan-2-yl)ethan-1-one], the GI50 was over 1000 nM. `NCCCNC(=O)c1ccc2c(-c3nc4ccc(F)cc4[nH]3)n[nH]c2c1` [Example 110, N-(3-aminopropyl)-3-(6-fluoro-1H-benzo[d]imidazol-2-yl)-1H-indazole-6-carboxamide] gave a GI50 of over 1000 nM. In the case of `O=C(c1ccc2[nH]nc(-c3nc4ccccc4[nH]3)c2c1)N1CCN(c2ccc(F)cc2)CC1` [Example 3, (3-(1H-benzo[d]imidazol-2-yl)-1H-indazol-5-yl)(4-(4-fluorophenyl)piperazin-1-yl)methanone], the GI50 is reported as over 1000 nM. Compound `CN(C)CCn1c(-c2n[nH]c3ccc(C(=O)NCCCN)cc23)nc2ccc(F)cc21` [Example 107, N-(3-aminopropyl)-3-(1-(2-(dimethylamino)ethyl)-6-fluoro-1H-benzo[d]imidazol-2-yl)-1H-indazole-5-carboxamide] has a GI50 of over 1000 nM. Work on `CN1CCN(C(=O)c2ccc3[nH]nc(-c4nc5ccccc5[nH]4)c3c2)CC1` [Example 2, (3-(1H-benzo[d]imidazol-2-yl)-1H-indazol-5-yl)(4-methylpiperazin-1-yl)methanone] yielded a GI50 of 100 to 1000 nM. `CN(C)CCCNC(=O)c1ccc2[nH]nc(-c3nc4ccc(C#N)cc4[nH]3)c2c1` [Example 10, 3-(6-cyano-1H-benzo[d]imidazol-2-yl)-N-(3-(dimethylamino)propyl)-1H-indazole-5-carboxamide] showed a GI50 of 100 to 1000 nM. Compound `COCc1cnc(-c2n[nH]c3ccc(C(=O)NCCCN)cc23)[nH]1` [Example 114, N-(3-aminopropyl)-3-(5-(methoxymethyl)-1H-imidazol-2-yl)-1H-indazole-5-carboxamide] has a GI50 of over 1000 nM. Compound `Nc1ccc(NC(=O)c2ccc3[nH]nc(-c4nc5ccc(N6CCOCC6)cc5[nH]4)c3c2)cc1` [Example 72, N-(4-aminophenyl)-3-(6-morpholino-1H-benzo[d]imidazol-2-yl)-1H-indazole-5-carboxamide] has a GI50 of 10 to 100 nM. Compound `COc1c(Cl)cc(Cl)cc1-c1cnc(-c2n[nH]c3ccc(C(=O)NCCCN)cc23)[nH]1` [Example 87, N-(3-aminopropyl)-3-(5-(3,5-dichloro-2-methoxyphenyl)-1H-imidazol-2-yl)-1H-indazole-5-carboxamide] has a GI50 of 10 to 100 nM. In the case of `CC(=O)N1CC(CNC(=O)c2ccc3[nH]nc(-c4nc5ccc(N6CCOCC6)cc5[nH]4)c3c2)C1` [Example 61, N-((1-acetylazetidin-3-yl)methyl)-3-(6-morpholino-1H-benzo[d]imidazol-2-yl)-1H-indazole-5-carboxamide], the GI50 is reported as over 1000 nM. `CN1CCN(CCn2c(-c3n[nH]c4ccc(C(=O)NCCCN)cc34)nc3ccc(F)cc32)CC1` [Example 108, N-(3-aminopropyl)-3-(6-fluoro-1-(2-(4-methylpiperazin-1-yl)ethyl)-1H-benzo[d]imidazol-2-yl)-1H-indazole-5-carboxamide] gave a GI50 of over 1000 nM. Compound `O=C(N[C@@H]1CCCNC1)c1ccc2[nH]nc(-c3nc4ccc(F)cc4[nH]3)c2c1` [Example 41, (R)-3-(6-fluoro-1H-benzo[d]imidazol-2-yl)-N-(piperidin-3-yl)-1H-indazole-5-carboxamide] has a GI50 of over 1000 nM. For `CN(C)CCOc1ccc2nc(-c3n[nH]c4ccc(C(=O)NCCCN)cc34)[nH]c2c1` [Example 24, N-(3-aminopropyl)-3-(6-(2-(dimethylamino)ethoxy)-1H-benzo[d]imidazol-2-yl)-1H-indazole-5-carboxamide], the GI50 was 100 to 1000 nM. For `NCCCNC(=O)c1ccc2[nH]nc(-c3ncc(-c4cccc(N)c4)[nH]3)c2c1` [Example 93, 3-(5-(3-aminophenyl)-1H-imidazol-2-yl)-N-(3-aminopropyl)-1H-indazole-5-carboxamide], the GI50 was 100 to 1000 nM. `CC(C)n1c(-c2n[nH]c3ccc(C(=O)NCCCN)cc23)nc2ccc(F)cc21` [Example 105, N-(3-aminopropyl)-3-(6-fluoro-1-isopropyl-1H-benzo[d]imidazol-2-yl)-1H-indazole-5-carboxamide] showed a GI50 of over 1000 nM. In the case of `CN1CCN(C2CCN(C(=O)c3ccc4[nH]nc(-c5nc6ccc(F)cc6[nH]5)c4c3)CC2)CC1` [Example 34, (3-(6-fluoro-1H-benzo[d]imidazol-2-yl)-1H-indazol-5-yl)(4-(4-methylpiperazin-1-yl)piperidin-1-yl)methanone], the GI50 is reported as over 1000 nM. `NCCCNC(=O)c1ccc2[nH]nc(-c3nc4ccc(Cl)cc4[nH]3)c2c1` [Example 27, N-(3-aminopropyl)-3-(6-chloro-1H-benzo[d]imidazol-2-yl)-1H-indazole-5-carboxamide] was tested, and the GI50 was 10 to 100 nM. Work on `NCCCNC(=O)c1ccc2[nH]nc(-c3ncc(-c4cccc(F)c4)[nH]3)c2c1` [Example 82, N-(3-aminopropyl)-3-(5-(3-fluorophenyl)-1H-imidazol-2-yl)-1H-indazole-5-carboxamide] yielded a GI50 of 10 to 100 nM. In the case of `C[C@@H]1CN(c2ccc3nc(-c4n[nH]c5ccc(C(=O)NCCCN)cc45)[nH]c3c2)C[C@H](C)N1` [Example 19, N-(3-aminopropyl)-3-(6-((3S,5R)-3,5-dimethylpiperazin-1-yl)-1H-benzo[d]imidazol-2-yl)-1H-indazole-5-carboxamide], the GI50 is reported as 100 to 1000 nM. `O=C(NCCCO)c1ccc2[nH]nc(-c3nc4ccc(F)cc4[nH]3)c2c1` [Example 111, 3-(6-fluoro-1H-benzo[d]imidazol-2-yl)-N-(3-hydroxypropyl)-1H-indazole-5-carboxamide] was tested, and the GI50 was 100 to 1000 nM.

Each compound was assayed against T1, FLT3 (Homo sapiens, UniProt P36888) (assay: ADP-Glo kinase assay FLT3 WT). Conditions: recombinant FLT3, 120 minutes at room temperature, read-out: Enzyme (IC50) FLT3 WT.
T1 construct: Recombinant proteins containing FLT3 and FLT3(D835Y) domains were purchased from Promega; purchased Promega V4064
T1 sequence (P36888 610-943 limits assumed): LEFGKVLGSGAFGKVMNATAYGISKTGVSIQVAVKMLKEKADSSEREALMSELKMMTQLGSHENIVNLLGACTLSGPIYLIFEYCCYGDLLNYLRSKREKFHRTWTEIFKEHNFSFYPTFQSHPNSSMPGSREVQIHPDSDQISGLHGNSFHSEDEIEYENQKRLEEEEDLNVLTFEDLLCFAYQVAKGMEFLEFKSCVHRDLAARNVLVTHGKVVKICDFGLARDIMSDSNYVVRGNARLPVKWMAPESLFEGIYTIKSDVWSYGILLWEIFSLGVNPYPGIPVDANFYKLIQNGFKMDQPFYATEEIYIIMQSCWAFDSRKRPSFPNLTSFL
Assay type: biochemical
Protocol: FLT3 activity inhibition was measured using the ADP-Glo kinase assay method (Promega, cat #V9101). The ADP-Glo kinase assay method is a luminescent ADP detection assay method that provides a homogeneous, high-throughput screening method for measuring kinase activity by quantifying the amount of ADP produced during the kinase reaction.
The assay was performed in two steps. First, after the kinase reaction, an equal volume of ADP-Glo™ reagent was added to terminate the kinase reaction and deplete any remaining ATP. Second, a kinase detection reagent was added to convert ADP to ATP, and simultaneously the newly synthesized ATP was measured via the luciferase/luciferin reaction. The light produced was measured using a luminometer.
Recombinant proteins containing FLT3 and FLT3(D835Y) domains were purchased from Promega (cat #V4064, cat #V4514), respectively. According to the manufacturer's instructions, the optimal enzyme, ATP, and substrate concentrations were optimized using the ADP-Glo™ kinase assay method (Promega, USA). […] Thereafter, ADP-Glo™ reagent (5 μl) was added and reacted for an additional 40 minutes at room temperature. Finally, the detection reagent (kinase detection reagent, 10 μl) was added, followed by reaction at room temperature for 30 minutes, and the phosphorylation of the substrate peptide was measured by detecting the luciferase signal (integration time 0.5~1 sec) using a SpectraMax ID5 reader (Molecular Devices LLC., San Jose, CA, USA).
`Cc1ccc2nc(-c3n[nH]c4ccc(C(=O)NCCCN(C)C)cc34)[nH]c2c1` [Example 12, N-(3-(dimethylamino)propyl)-3-(6-methyl-1H-benzo[d]imidazol-2-yl)-1H-indazole-5-carboxamide] was tested, and the IC50 was under 10 nM.
